row,SMILES,melting point
1,COc1ccc(CN(CCN(C)C)c2cccc(/C=C/C(=O)O)n2)cc1,75 to 81 °C
2,C=CCc1c(C)ccc(N2C(=O)c3ccccc3C2=O)c1O,178 to 180 °C
3,COCCOC(=O)C1=C(O)c2ccccc2S(=O)(=O)N1,120 to 122 °C
4,Cc1ccc(-c2nc(-c3cnccc3C)sc2F)cc1,96 °C
5,Cc1ccc2c(c1)c(=O)oc(=O)n2Cc1ccccc1,150 °C
6,CCOC(=O)c1cnc(C)nc1NCc1ccc(-c2ccccc2-c2nnnn2C(c2ccccc2)(c2ccccc2)c2ccccc2)cc1,155 to 156 °C
7,O=C(Nc1cccnc1)N1CCN(c2nc(-c3cccc(Cl)c3Cl)cs2)CC1,132 to 133 °C
8,Cc1nc(N)[nH]c(=O)c1N1CCN(c2ccc(CN)cc2)CC1,281 to 282 °C
9,C[C@H](O)[C@H](Cc1ccccc1)C(=O)NN,167 °C
10,OCC1C(Cl)=Cc2ccccc21 (centres undefined),104 to 105 °C
11,O[C@@H](c1c[nH]nc1-c1ccccc1)[C@H](CCN1CCC(O)(c2ccccc2)CC1)c1ccc(Cl)c(Cl)c1 (racemic),133 to 135 °C
12,N#Cc1ccc([C@@H]2[C@@H]3C(=O)N(CC4CCCCC4)C(=O)[C@@H]3[C@H]3CCCN32)cc1 (racemic),119 to 122 °C
13,Cc1cc(COc2nn3c(-c4cc(C)on4)nnc3c3ccccc23)no1,243 to 245 °C
14,CCNC(=O)Oc1ccc2c(N(C)CCN3CCOCC3)noc2c1,99 to 100 °C
15,COc1c(CC#N)c2c(c3c1OC(C)(C)C3)C(c1ccccc1)=NC(C)(C)C2,95 to 96 °C
16,O=C1CCc2c(Br)cc(F)cc21,129 to 131 °C
17,O=C(c1ccc(C#Cc2ccccc2)cc1)c1ccc(Oc2ccccc2)cc1,166 °C
18,CNc1cc(Sc2ccc(O)cc2)c(N)cc1[N+](=O)[O-],206 °C
19,NS(=O)(=O)Oc1ccc(C(c2ccc(OS(N)(=O)=O)c(Br)c2)n2cncn2)cc1Br,98 to 102 °C
20,CN1CCC[C@H]1Cn1nc(-c2c(-c3ccccc3)nn3ccccc23)ccc1=O,114 to 117 °C
21,COc1cccc2c1sn1c3ccccc3c(=O)cc21,245 to 251 °C
22,O=C(c1ccn2c1CSC2c1cccnc1)c1cn(CCO)c2cc(-c3ccc(F)cc3)ccc12 (centres undefined),170 to 171 °C
23,CC(=O)N(C)Cc1ccc(OCc2ccc(F)cc2)cc1,82 to 83 °C
24,O=C1C2CCCC2=Nc2ccccc2N1Cc1ccc(F)cc1 (centres undefined),134 to 137 °C
25,CCCc1cc(-c2cccs2)n[nH]c1=O,171 to 174 °C

row,SMILES,melting point
1,c1ccc(CN2CCN(c3nc4cccc5c4n3CCC5)CC2)cc1,157 to 158 °C
2,Cc1nc(-c2cc(C(N)=O)c(=O)[nH]c2C)cs1,> 300 °C
3,CCCOc1ccc(CCNC(=O)C=Cc2ccc(Cl)cc2Cl)cc1OCCC,132 to 134 °C
4,CC1(Oc2ccccc2)CN(Cc2ccc(COc3cccc4c3CN(C3CCC(=O)NC3=O)C4=O)cc2)C1 (centres undefined),127 to 129 °C
5,N=C(N)NC1CCC(CCN2CCN(c3ccccc3)CC2)CC1 (centres undefined),140 to 170 °C
6,CS(=O)(=O)Cc1ccc(C(=O)c2ccc(Cl)cc2)cc1,164 to 166 °C
7,CC(C)(C)NC(=O)c1ccc(-c2ccc3nnn(Cc4ccc5ncccc5c4)c3n2)cc1F,210 to 212 °C
8,Nc1cccc(CN2C(=O)[C@H]3CCC[C@H]3Nc3ccccc32)c1 (relative stereo),176 to 178 °C
9,CC(=O)Oc1ccc(-c2c3ccccc3cc3sc4ccccc4c23)cc1OC(C)=O,179 to 180 °C
10,CC(=O)SCCC(=O)N1c2cc(C)ccc2CCC1C(=O)O (centres undefined),119 to 122 °C
11,CCOC(=O)c1cc2cc(C)sc2[nH]1,107 to 109 °C
12,CC(C)(C)c1cc(C=O)c(O)c(S(C)(=O)=O)c1,134 to 136 °C
13,O=C(O)CCCN1C(=O)c2ccc(C(=O)O)cc2C1=O,218 to 220 °C
14,COCCc1nc2c(N)nc3ccccc3c2n1CCCCNC(=O)c1cnc2ccccc2c1,114 to 116 °C
15,O=C(O)Cc1c(C(=O)O)c2cc(Oc3cccc(Cl)c3)ccc2n1-c1ccccc1,192 to 194 °C
16,CC1=Nc2ccc(S(N)(=O)=O)cc2S(=O)(=O)N1,295 to 297 °C
17,Cc1c(C(=O)O)ncc2[nH]c3ccc(C4CC=CCC4)cc3c12 (centres undefined),284 to 285 °C
18,CCCN1C(=O)COc2cc(F)c(-n3nn[nH]c3=O)cc21,145 to 148 °C
19,COc1cc2c(c(Cl)c1Cl)C(=O)C(CCCl)C2 (centres undefined),103 to 105 °C
20,O=C(NC1CCCc2cc(C(=O)O)ccc21)OCc1ccccc1 (centres undefined),203 to 205 °C
21,CCc1cc(O)c2cnn(C(C)=O)c2c1,161 to 163 °C
22,Cc1cc2[nH]c3ccccc3n2n1,250 to 252 °C
23,CCOCc1nc2c(N)nc3ccccc3c2n1NCCCNC(=O)Nc1ccccc1,177 to 179 °C
24,CCCCCC(CC(=O)Nc1cc(C(=O)Nc2ccncc2)ccc1C(C)(C)C)c1c(OC)cccc1OC (centres undefined),169 to 172 °C
25,COc1ccccc1OCC(O)CNCCOc1ccc(C(N)=O)cn1 (centres undefined),98 to 105 °C

row,SMILES,melting point
1,CC(C)=CC(=O)N1CCN(C(Cc2cccc(O)c2)c2ccccc2)CC1 (centres undefined),186 to 187 °C
2,CCCCCCCNC(=O)c1cnc2cccc(C)n2c1=O,118 to 120 °C
3,CC(C)(C)OC(=O)NCCc1ccc(Oc2cc(C#N)ccn2)cc1,92 to 96 °C
4,c1ccc(C2SCCCS2)cc1,72 to 73 °C
5,CCCc1c(O)c(C(C)=O)cc(I)c1OCc1ccc(C(=O)O)cc1,167 to 168 °C
6,O=C(Oc1ccccc1)Sc1nc2ccccc2n1C1CCN(C(=O)Oc2ccccc2)CC1,200 to 203 °C
7,CCc1cc(SCCc2cccc3cn(-c4ccc(C(F)(F)F)cc4)nc23)ccc1OCC(=O)O,115 to 117 °C
8,O=C(O)CSCC(O)CN1CCCCC1 (centres undefined),152 °C
9,CC(C)N1CC(CO)CC2c3cccc4[nH]cc(c34)CC21 (centres undefined),192 to 194 °C
10,NS(=O)(=O)c1ccc(-n2nc(CCNC(=O)Nc3cccc(C(F)(F)F)c3)cc2-c2ccccc2)cc1,122 to 125 °C
11,Cn1cc(CCl)c(=O)c2ccc(F)cc21,169 to 171 °C
12,COc1c(C(C)(C)C)cc(C=O)c(O)c1Br,123 to 124 °C
13,O=C(c1ccc2nc(C3CC3)n(Cc3ccccc3Cl)c2c1)N1CCOCC1,193 to 195 °C
14,COc1ccc(CN2CC(c3ccccc3)=C(O)C2=O)cc1,195 to 198 °C
15,O=c1ncc(Cl)cn1CS(=O)c1ccc(Cl)cc1 (centres undefined),262 °C
16,Cc1nc2cccc(OC3CCCCC3)c2c(N)c1C(=O)O,220 to 222 °C
17,CCOc1ccc2c(c1)n(C1CCCCC1)c(=O)n2S(=O)(=O)c1ccc(C(=O)OCc2ccccc2)cc1OC,131 °C
18,O=C1Nc2cc(C(F)(F)F)ccc2S(=O)(=O)c2ccccc21,253 to 254 °C
19,CCOC(=O)[C@H](C[C@H](Cc1ccc(OC)c(OCCCOC)c1)C(C)C)NC(=O)OC(C)(C)C,59 to 60 °C
20,COc1ccc(N(C(C)C)S(=O)(=O)c2ccc(C)cc2)c([N+](=O)[O-])c1,148 to 150 °C
21,CSC1C(=O)Nc2c(C(=O)c3ccc(F)cc3)cc(F)cc21 (centres undefined),171 to 172 °C
22,O=C(Oc1ccccc1)c1ncn2c1CN(C(=O)N1CCCC1)c1ccccc1-2,196 to 199 °C
23,FC(F)(F)c1ccc2sc(CCl)nc2c1,52 °C
24,COc1ccc(Cc2sc3ccccc3c2-c2ccc(-c3ccc(OC(Cc4ccccc4)C(=O)O)cc3)cc2)c(OC)c1 (centres undefined),70 to 72 °C
25,CNC(=O)N(O)CCNC(=O)c1ccc2ccccc2n1,158 to 159 °C

row,SMILES,melting point
1,Cc1cc(C(=O)O)ccc1OCCNC(=O)C1Cc2ccccc2N1S(=O)(=O)c1ccc(-c2cccc(C(F)(F)F)c2)cc1 (centres undefined),102 to 108 °C
2,Cc1c([N+](=O)[O-])ccc2c1SC1(Cl)C=C(C(F)(F)F)C=C(Cl)C1O2 (centres undefined),135 °C
3,O=S(=O)(Nc1ccc2c(OCc3ccc(-c4ccc(F)cc4)cc3F)cccc2c1)C(F)(F)F,134 to 136 °C
4,O=C1NC(=O)C2c3c([nH]c4ccc(Cl)cc34)-c3[nH]c4ccc(Cl)cc4c3C12 (centres undefined),> 300 °C
5,O=c1oc(/C=C/c2ccc(OC(F)F)c(OC(F)F)c2)nc2ccccc12,113 to 115 °C
6,CCOc1cc(N)c(Cl)cc1C(=O)NCC1CN(CC2CCN(C(N)=O)CC2)CCO1 (centres undefined),201 to 207 °C
7,CCCC(=O)Nc1n[nH]c2cc(Cl)c(-c3ccc(OCc4ccccc4)cc3)cc12,230 °C
8,COc1ccc2nc(-c3cc(F)c(OC)c(F)c3)cc(Br)c2c1,170 to 172 °C
9,CN(c1ncc2ncnc(Nc3ccc(F)c(Cl)c3)c2n1)[C@H]1CC[C@H](N)CC1,203 to 205 °C
10,COC(=O)C=CCc1cc(C=CC(=O)OC(C)(C)C)cc(Cc2cccnc2)c1,91 to 93 °C
11,Nc1ccc(-c2coc3cc(O)c(O)cc3c2=O)cc1,305 to 306 °C
12,CCCc1c(C(C)C)nc(C(C)C)c(CO)c1-c1ccc(F)cc1O,138 to 141 °C
13,CCCCC1(N(C)C)CC=C(c2[nH]c3ccccc3c2CCNC(=O)CC(C)(C)C)CC1 (centres undefined),139 to 142 °C
14,CCCCN1CCC(NC(=O)c2ccc(NCc3ccnc4ccccc34)cc2)CC1,189 to 190 °C
15,CCCc1c(OCCCCc2nc3ccc(C(=O)O)cc3[nH]2)ccc(C(C)=O)c1O,98 to 100 °C
16,CCCc1n[nH]c2c(=O)[nH]c(-c3ccccc3OCC)nc12,199 to 201 °C
17,COc1cncc(OC)c1CCCO,88 to 89 °C
18,O=C1N(Cc2ccc(C(F)(F)F)o2)c2cccc(Br)c2C12COc1cc3c(cc12)CCO3 (centres undefined),165 to 167 °C
19,CC(=O)OC(COc1ccc(C(=O)O)cc1)c1cc2cc(C(C)C)ccc2o1 (centres undefined),135 to 137 °C
20,COc1cnn(-c2cc(Cl)cc(Cl)c2)c(=O)n1,164 °C
21,CCOP(=O)(OCC)C(C)c1cn(C(c2ccccc2)(c2ccccc2)c2ccccc2)cn1 (centres undefined),124 to 126 °C
22,Cc1nc(-c2cc(Cc3ccccc3)no2)sc1C(=O)NCc1ccccc1,103 to 104 °C
23,Cc1[nH]c2cc(C(=O)c3ccccc3)ccc2c1C=O,192 to 196 °C
24,O=[N+]([O-])c1ccc(C=[N+]([O-])c2cccc(CO)c2)o1,187 to 188 °C

# From a melting point compilation (Tetko et al.; mined from patent text by program, amines drawn as free bases though some values may be those of a salt)
